Experimental data: PMC8294059, “Identification and Immune Assessment of T Cell Epitopes in Five Plasmodium falciparum Blood Stage Antigens to Facilitate Vaccine Candidate Selection and Optimization” (Frontiers in Immunology, 2021)
Where a SMILES comes first, the peptide text is derived from it.

biological target: HLA-A*0201 (Homo sapiens, UniProt P04439, D140Y/D185E/D98H/E176V/E277Q/G131W/G231S/I119V/I121R/I166T/I218V/L300P/L318F/N151K/N90K/P208A/P217A/Q86G/Q94H/R138H/R169H/T345S); assay: In vitro class I HLA binding assay (fluorescence polarization competition); conditions: allele A*0201; fluorescence polarization competition
Description: (§1) A cell-free class I HLA binding assay that allows for in vitro quantification of peptide-HLA binding affinity in a competition format was used. In this assay, a fluorescently labeled, high binding, control peptide is loaded onto 384-well ½-area plates along with unlabeled experimental peptides. To remove endogenous peptides and render the HLA A and B molecules receptive to binding, HLA is heated at 53°C for 15 minutes and immediately added to the assay. The mixture is then allowed to stand for three days. Once the mixture has reached steady equilibrium (at 72 hours), displacement of the high binding control peptide is measured through fluorescence polarization. Binding of experimental peptides is expressed as the percent inhibition of the labeled control peptide (experimental fluorescence / control fluorescence, multiplied by 100). The percent inhibition values for each experimental peptide (across a range of molar concentrations) are used to calculate the concentration which inhibits 50% of the labeled control peptide’s specific binding. This value is referred to as the peptide’s IC50.

For DMSNEYSLFI [RH5_461], the “IC50 (nM), in vitro HLA binding affinity” value was “Non-Binder”.

biological target: HLA-A*0101 (Homo sapiens, UniProt P04439, A114D/A174V/A182V/D101N/D185E/E176A/E190D/L180R/Q94H/R68K/S129P/T187R/V100A/V91M/W191G); assay: biochemical; format: binding; conditions: allele A*0101; cell-free competition, fluorescence polarization at 72 hours; Non-binder = no dose-dependent inhibition; read-out: IC50
Description: as §1

First: CC[C@H](C)[C@H](NC(=O)[C@H](CC(C)C)NC(=O)[C@H](CO)NC(=O)[C@H](CO)NC(=O)[C@@H](N)[C@@H](C)O)C(=O)N[C@@H](CCCCN)C(=O)N[C@@H](CCC(N)=O)C(=O)N[C@@H](CC(N)=O)C(=O)N[C@@H](CCCCN)C(=O)N[C@@H](Cc1ccc(O)cc1)C(=O)O [EBA175_0114] (H-TSSLIKQNKY-OH)
Second: CC[C@H](C)[C@H](NC(=O)[C@H](CCCNC(=N)N)NC(=O)[C@H](CCC(=O)O)NC(=O)[C@@H](NC(=O)[C@@H](N)[C@@H](C)O)[C@@H](C)O)C(=O)N[C@@H](CO)C(=O)N[C@@H](CC(N)=O)C(=O)N[C@@H](CC(N)=O)C(=O)N[C@@H](CCC(=O)O)C(=O)N[C@@H](Cc1ccc(O)cc1)C(=O)O [EBA175_1084] (H-TTERISNNEY-OH)
The IC50 of the first is 41-fold higher: 37100 nM for the first, 904 nM for the second.

Compared with `C[C@@H](O)[C@H](NC(=O)[C@@H](N)Cc1ccccc1)C(=O)N[C@@H](Cc1ccc(O)cc1)C(=O)N[C@@H](CC(=O)O)C(=O)N[C@@H](CO)C(=O)N[C@@H](CCC(=O)O)C(=O)N[C@@H](CCC(=O)O)C(=O)N[C@@H](Cc1ccc(O)cc1)C(=O)N[C@@H](Cc1ccc(O)cc1)C(=O)O` [EBA175_1392] (H-FTYDSEEYY-OH), `CC(C)C[C@H](NC(=O)[C@H](CCCCN)NC(=O)[C@H](CC(=O)O)NC(=O)[C@H](CC(C)C)NC(=O)[C@H](CC(N)=O)NC(=O)[C@H](CC(=O)O)NC(=O)[C@@H](NC(=O)[C@@H](N)C(C)C)[C@@H](C)O)C(=O)N[C@@H](CO)C(=O)N[C@@H](CC(N)=O)C(=O)O` [EBA175_1465] (H-VTDNLDKLSN-OH) is 1400-fold higher in IC50: 136 nM for the first, 188000 nM for the second.

same assay, conditions: allele A*0101; fluorescence polarization competition; read-out: IC50 (nM), in vitro HLA binding affinity

Compared with `N=C(N)NCCC[C@H](NC(=O)[C@@H](N)Cc1c[nH]cn1)C(=O)N[C@@H](CCC(=O)O)C(=O)N[C@@H](Cc1c[nH]cn1)C(=O)N1CCC[C@H]1C(=O)N[C@@H](CCCCN)C(=O)N[C@@H](CCC(=O)O)C(=O)N[C@@H](Cc1ccc(O)cc1)C(=O)N[C@@H](CCC(=O)O)C(=O)N[C@@H](Cc1ccc(O)cc1)C(=O)O` [AMA1_044] (H-HREHPKEYEY-OH), `N=C(N)NCCC[C@H](NC(=O)[C@H](Cc1ccc(O)cc1)NC(=O)[C@H](CO)NC(=O)[C@H](CC(=O)O)NC(=O)[C@H](CC(=O)O)NC(=O)[C@H](CC(N)=O)NC(=O)[C@H](CCCCN)NC(=O)[C@@H](N)CC(N)=O)C(=O)N[C@@H](Cc1ccc(O)cc1)C(=O)O` [RH5_246] (H-NKNDDSYRY-OH) is 1.7-fold lower in IC50: 11100 nM for the first, 6680 nM for the second. The second is the more potent here.

Going from `CC[C@H](C)[C@H](NC(=O)[C@H](CCC(=O)O)NC(=O)[C@@H](NC(=O)[C@@H](N)CO)[C@@H](C)CC)C(=O)N[C@H](C(=O)N[C@@H](CCC(=O)O)C(=O)N[C@@H](CCCNC(=N)N)C(=O)N[C@@H](CO)C(=O)N[C@@H](CC(N)=O)C(=O)N[C@@H](Cc1ccc(O)cc1)C(=O)O)C(C)C` [AMA1_096] (H-SIEIVERSNY-OH) to `CC(C)C[C@H](NC(=O)[C@@H](NC(=O)[C@H](CO)NC(=O)[C@@H](NC(=O)[C@@H](N)CC(=O)O)C(C)C)[C@@H](C)O)C(=O)N[C@@H](CC(N)=O)C(=O)N[C@@H](CC(=O)O)C(=O)N[C@@H](CCC(=O)O)C(=O)N[C@@H](Cc1ccc(O)cc1)C(=O)O` [CYRPA_282] (H-DVSTLNDEY-OH), the IC50 rises from 12100 nM to 52200 nM (4.3-fold).

Going from `CC(C)C[C@H](N)C(=O)N[C@H](C(=O)N1CCC[C@H]1C(=O)N[C@H](C(=O)N[C@@H](C)C(=O)N[C@H](C(=O)NCC(=O)N[C@@H](CC(N)=O)C(=O)N[C@@H](CCC(N)=O)C(=O)N[C@@H](Cc1ccc(O)cc1)C(=O)O)[C@@H](C)O)C(C)C)[C@@H](C)O` [AMA1_166] (H-LTPVATGNQY-OH) to `CC(C)C[C@H](NC(=O)CNC(=O)[C@H](CC(=O)O)NC(=O)[C@H](CC(N)=O)NC(=O)[C@@H](NC(=O)[C@H](CC(N)=O)NC(=O)[C@@H](NC(=O)[C@@H](N)CC(N)=O)[C@@H](C)O)C(C)C)C(=O)N[C@@H](CCCCN)C(=O)N[C@@H](Cc1ccc(O)cc1)C(=O)O` [RH5_88] (H-NTNVNDGLKY-OH), the IC50 rises from 2560 nM to 4120 nM (1.6-fold).

Going from `CC[C@H](C)[C@H](N)C(=O)N1CCC[C@H]1C(=O)N[C@@H](CC(=O)O)C(=O)N[C@@H](CC(N)=O)C(=O)N[C@@H](CC(=O)O)C(=O)N[C@@H](CCCCN)C(=O)N[C@@H](CC(N)=O)C(=O)N[C@@H](CO)C(=O)N[C@@H](CC(N)=O)C(=O)N[C@@H](Cc1ccc(O)cc1)C(=O)O` [AMA1_225] (H-IPDNDKNSNY-OH) to `C[C@H](N)C(=O)N[C@@H](CO)C(=O)N[C@@H](CC(=O)O)C(=O)N[C@@H](CCC(N)=O)C(=O)N1CCC[C@H]1C(=O)N[C@@H](CCCCN)C(=O)N[C@@H](CCC(N)=O)C(=O)N[C@@H](Cc1ccc(O)cc1)C(=O)N[C@@H](CCC(=O)O)C(=O)N[C@@H](CCC(N)=O)C(=O)O` [AMA1_346] (H-ASDQPKQYEQ-OH), the IC50 rises from 14700 nM to 126000 nM (8.6-fold).

Compared with `CC[C@H](C)[C@H](NC(=O)[C@H](Cc1c[nH]cn1)NC(=O)[C@@H](NC(=O)[C@H](CCC(=O)O)NC(=O)[C@H](CC(=O)O)NC(=O)[C@H](CCC(=O)O)NC(=O)[C@H](CCC(=O)O)NC(=O)CN)[C@@H](C)O)C(=O)N[C@@H](Cc1ccc(O)cc1)C(=O)O` [CYRPA_070] (H-GEEDETHIY-OH), `CC[C@H](C)[C@H](NC(=O)[C@H](Cc1ccc(O)cc1)NC(=O)[C@H](CCC(=O)O)NC(=O)[C@H](CC(=O)O)NC(=O)[C@H](CC(N)=O)NC(=O)[C@@H](N)CC(C)C)C(=O)N[C@H](C(=O)N[C@@H](CO)C(=O)N[C@@H](Cc1ccc(O)cc1)C(=O)O)C(C)C` [CYRPA_286] (H-LNDEYIVSY-OH) is 9.3-fold lower in IC50: 261000 nM for the first, 28100 nM for the second. The second is the more potent here.

`CC[C@H](C)[C@H](NC(=O)[C@H](CO)NC(=O)[C@@H](N)CC(N)=O)C(=O)N[C@@H](CC(C)C)C(=O)N[C@H](C(=O)N[C@@H](CCCCN)C(=O)N1CCC[C@H]1C(=O)N[C@@H](CCC(=O)O)C(=O)N[C@@H](CCCCN)C(=O)N[C@@H](Cc1ccc(O)cc1)C(=O)O)[C@@H](C)CC` [CYRPA_311] (H-NSILIKPEKY-OH) and `CC[C@H](C)[C@H](NC(=O)[C@@H](NC(=O)[C@H](Cc1ccccc1)NC(=O)[C@H](CC(=O)O)NC(=O)[C@H](CC(C)C)NC(=O)[C@@H](N)Cc1c[nH]cn1)C(C)C)C(=O)N[C@H](C(=O)N1CCC[C@H]1C(=O)N[C@@H](Cc1c[nH]cn1)C(=O)N[C@@H](Cc1ccc(O)cc1)C(=O)O)[C@@H](C)CC` [RH5_170] (H-HLDFVIIPHY-OH) are within 1.5-fold of each other in IC50: 109000 nM for the first, 118000 nM for the second.

`CC[C@H](C)[C@H](NC(=O)[C@H](CC(=O)O)NC(=O)[C@H](CC(=O)O)NC(=O)[C@H](CCCCN)NC(=O)[C@H](CCC(=O)O)NC(=O)[C@H](CCC(=O)O)NC(=O)[C@H](CCC(=O)O)NC(=O)[C@@H](NC(=O)[C@@H](N)CO)[C@@H](C)O)C(=O)N[C@@H](CCCCN)C(=O)O` [RH5_46] (H-STEEEKDDIK-OH) and `CC(C)[C@H](NC(=O)[C@H](CC(N)=O)NC(=O)[C@H](CCCCN)NC(=O)[C@H](Cc1ccc(O)cc1)NC(=O)[C@H](CC(=O)O)NC(=O)[C@H](CCC(=O)O)NC(=O)[C@H](CC(N)=O)NC(=O)[C@@H](N)CC(N)=O)C(=O)N[C@@H](CC(=O)O)C(=O)N[C@@H](Cc1ccc(O)cc1)C(=O)O` [RH5_130] (H-NNEDYKNVDY-OH) are within 1.5-fold of each other in IC50: 6830 nM for the first, 7990 nM for the second.

Compound `CC(C)[C@H](NC(=O)[C@H](CC(N)=O)NC(=O)[C@H](CCCCN)NC(=O)[C@H](Cc1ccc(O)cc1)NC(=O)[C@H](CC(=O)O)NC(=O)[C@H](CCC(=O)O)NC(=O)[C@@H](N)CC(N)=O)C(=O)N[C@@H](CC(=O)O)C(=O)N[C@@H](Cc1ccc(O)cc1)C(=O)O` [RH5_131] (H-NEDYKNVDY-OH) has an IC50 of 8920 nM.
